From patent US20210290648A1, “Potentiation of B-Lactam Antibiotics and B-Lactam/B-Lactamase Inhibitor Combinations Against Multidrug and Extensively Drug-Resistant Pseudomonas Aeruginosa Using Non-Ribosomal Tobramycin-Cyclam Conjugates” (University of Manitoba, priority 2018, published 2021)

Tests used:
Assay type in all cases: cell-based, Pseudomonas aeruginosa
PA 262 = assay: Checkerboard combination study / MIC; details: for MICCombination (antibiotic): MIC of antibiotic combined with compound 2; for FICI: antibiotic + compound 2; for MICAntibiotic: antibiotic alone; for FICAntibiotic: with compound 2
PA 101885 = assay: Checkerboard combination study / MIC; details: for MICCombination (antibiotic): MIC of antibiotic combined with compound 2; for FICI: antibiotic + compound 2; for MICAntibiotic: antibiotic alone; for FICAntibiotic: with compound 2
WT P. aeruginosa PAO1 = assay: Checkerboard combination study / MIC; details: for MIC: Pseudomonas aeruginosa, PAO1, 18 h, WT PAO1 (Table 2), read-out: MIC alone; for MIC / MIC of antibiotic alone in PAO1: antibiotic alone; for FICI in the presence of ≤10 μM of 1: antibiotic + compound 1; for FICI in the presence of ≤10 μM of 1 / MIC of Antibiotics in the presence of ≤10 μM of 1 / FICI in the presence of ≤10 μM of 2 / MIC of Antibiotics in the presence of ≤10 μM of 2 / FICI in the presence of ≤10 μM of 3 / MIC of Antibiotics in the presence of ≤10 μM of 3: WT PAO1; for MIC of Antibiotics in the presence of ≤10 μM of 1: antibiotic + compound 1 ≤10 μM; for FICI in the presence of ≤10 μM of 2: antibiotic + compound 2; for MIC of Antibiotics in the presence of ≤10 μM of 2: antibiotic + compound 2 ≤10 μM; for FICI in the presence of ≤10 μM of 3: antibiotic + compound 3; for MIC of Antibiotics in the presence of ≤10 μM of 3: antibiotic + compound 3 ≤10 μM; for MIC of antibiotic alone in PAO1: PAO1 wild-type (Table 4)
PAO750 = details: for MIC of antibiotic alone in PAO750: PAO750 efflux-deficient
Description: (§1) PAO200 is a tnexA-rnexB-oprM deletion strain while PAO750 lacks five important RND pumps (McxAB-OprM, MexCD-OprJ, MexEF-OprN, Mex JK, and MexXY) and the outer membrane protein OpmH (46, 47). Some of these pumps are homologues of broad substrate specificities that extrude different classes of antimicrobial agents and confer resistance on P. aeruginosa (48).
(§2) Antimicrobial Susceptibility Assay. The in vitro antimicrobial activity of all compounds/antibiotics against a panel of bacteria was evaluated by microbroth dilution method in accordance with the Clinical and Laboratory Standards Institute (CLSI) guidelines. Overnight grown bacterial cultures were diluted in saline to achieve a 0.5 McFarland turbidity, followed by 1:50 dilution in Mueller-Hinton broth (MHB) for inoculation to a final concentration of approximately 5×10^5CFU/mL. The antimicrobial agents were 2-fold serially diluted in MHB in a 96-well plate and incubated at 37° C. with equal volumes of inoculum for 18 h. The lowest concentration that prevented the visible growth of bacteria was defined as the MIC for each antimicrobial agent. The broth with or without bacterial cells was used as positive or negative control, respectively.
(§3) Checkerboard Assay. Combination studies with different antibiotics were performed in 96-well plates as previously described (22). Briefly, the antibiotic of interest was serially diluted in MHB along the abscissa while the adjuvant (newly synthesized conjugates) was serially diluted in MHB along the ordinate. This creates a 10×7 matrix wherein each well consists of a combination of different antibiotic and adjuvant concentrations. Overnight grown bacterial cultures were diluted in saline to achieve a 0.5 McFarland turbidity, followed by 1:50 dilution in Mueller-Hinton broth (MHB) for inoculation to a final concentration of approximately 5×10^5CFU/mL. Equal volume of this bacterial culture was then added to each well and incubated at 37° C. for 18 h. After incubation, the plates were read on EMax® Plus microplate reader (Molecular Devices, Sunnyvale, Calif., USA) at 590 nm. MIC was recorded as wells with the lowest concentration of drugs with no bacterial growth. The fractional inhibitory concentration (FIC) for each antibiotic was calculated by dividing the MIC of the antibiotic in the presence of adjuvant by the MIC of the antibiotic alone. Similarly, the FIC of adjuvant was calculated by dividing the MIC of the adjuvant in the presence of antibiotic by the MIC of the adjuvant alone. FIC index is the sum of both FICs. FIC indices of <0.5 were deemed synergistic; 0.5-4, no interaction; and >4, antagonistic.

PAO200 = details: for MIC of antibiotic alone in PAO200: PAO200 efflux-deficient
Description: as §1, §2, §3

PA 100036 = assay: Checkerboard combination study / MIC; details: for MICCombination (antibiotic): MIC of antibiotic combined with compound 2; for FICI: antibiotic + compound 2; for MICAntibiotic: antibiotic alone; for FICAntibiotic: with compound 2
PA 260 = assay: Checkerboard combination study / MIC; details: for MICCombination (antibiotic): MIC of antibiotic combined with compound 2; for FICI: antibiotic + compound 2; for MICAntibiotic: antibiotic alone; for FICAntibiotic: with compound 2
PA 91433 = assay: Checkerboard combination study / MIC; details: PA 91433; for MICCombination (antibiotic): MIC of antibiotic combined with compound 2; for FICI: antibiotic + compound 2; for MICAntibiotic: antibiotic alone; for FICAntibiotic: with compound 2
PA 259 = assay: Checkerboard combination study / MIC; details: for MICAntibiotic: antibiotic alone
PA 114228 = assay: Checkerboard combination study / MIC; details: for MICCombination (antibiotic): MIC of antibiotic combined with compound 2; for FICI: antibiotic + compound 2; for MICAntibiotic: antibiotic alone
[1] = system: MDR/XDR P. aeruginosa clinical isolates; assay: MIC and checkerboard, panel of clinical isolates; details: antibiotic + compound 2 (8.7 μM); resistant P. aeruginosa isolates
PA 101243 = assay: Checkerboard combination study / MIC; details: PA 101243; for MICCombination (antibiotic): MIC of antibiotic combined with compound 2; for FICI: antibiotic + compound 2; for MICAntibiotic: antibiotic alone; for FICAntibiotic: with compound 2
PA 264 = assay: Checkerboard combination study / MIC; details: for MICCombination (antibiotic): MIC of antibiotic combined with compound 2; for FICI: antibiotic + compound 2; for MICAntibiotic: antibiotic alone; for FICAntibiotic: with compound 2

For CO/N=C(\C(=O)N[C@@H]1C(=O)N2C(C(=O)O)=C(COC(C)=O)CS[C@H]12)c1csc(N)n1 [Cefotaxime], the “MICCombination (antibiotic)” value (PA 262) was 32 µg/mL, the FICI (PA 262) was under 0.31 and the MICAntibiotic (PA 262) was 128 µg/mL. For the same compound, the FICAntibiotic (PA 262) was 0.250, the “MICCombination (antibiotic)” value (PA 101885) was 8 µg/mL and the FICI (PA 101885) was under 0.13. The MICAntibiotic (PA 101885) was 128 µg/mL, the FICAntibiotic (PA 101885) was 0.063 and the “MIC of antibiotic + Compound 2 in PAO1” value (WT P. aeruginosa PAO1; + compound 2 ≤8.7 μM, PAO1) was 4 (4) μg/ml. For the same compound, the MIC (WT P. aeruginosa PAO1) was 16 µg/mL, the “FICI in the presence of ≤10 μM of 1” value (WT P. aeruginosa PAO1) was 0.13 and the “MIC of Antibiotics in the presence of ≤10 μM of 1” value (WT P. aeruginosa PAO1) was 2 µg/mL. For the same compound, the “FICI in the presence of ≤10 μM of 2” value (WT P. aeruginosa PAO1) was 0.26, the “MIC of Antibiotics in the presence of ≤10 μM of 2” value (WT P. aeruginosa PAO1) was 4 µg/mL and the “FICI in the presence of ≤10 μM of 3” value (WT P. aeruginosa PAO1) was 0.27. The “MIC of Antibiotics in the presence of ≤10 μM of 3” value (WT P. aeruginosa PAO1) was 4 µg/mL, the “MIC of antibiotic alone in PAO1” value (WT P. aeruginosa PAO1) was 16 µg/mL and the “MIC of antibiotic + Compound 2 in PAO750” value (PAO750; + compound 2 ≤8.7 μM, PAO750) was 2 µg/mL. For the same compound, the “MIC of antibiotic alone in PAO750” value (PAO750) was 32 µg/mL, the “MIC of antibiotic + Compound 2 in PAO200” value (PAO200; + compound 2 ≤8.7 μM, PAO200) was 4 µg/mL and the “MIC of antibiotic alone in PAO200” value (PAO200) was 8 µg/mL. For the same compound, the “MICCombination (antibiotic)” value (PA 100036) was 8 µg/mL, the FICI (PA 100036) was under 0.31 and the MICAntibiotic (PA 100036) was 32 µg/mL. The FICAntibiotic (PA 100036) was 0.250, the “MICCombination (antibiotic)” value (PA 260) was 512 µg/mL and the FICI (PA 260) was under 0.53. For the same compound, the MICAntibiotic (PA 260) was 1024 µg/mL, the FICAntibiotic (PA 260) was 0.500 and the “MICCombination (antibiotic)” value (PA 91433) was 8 µg/mL. It also gave an FICI (PA 91433) of under 0.07, an MICAntibiotic (PA 91433) of 1024 µg/mL and an FICAntibiotic (PA 91433) of 0.008. For the same compound, the “MICCombination (antibiotic)” value (PA 259; MIC of antibiotic combined with compound 2) was 512 µg/mL, the FICI (PA 259; antibiotic + compound 2) was under 0.31 and the MICAntibiotic (PA 259) was 2048 µg/mL. For the same compound, the FICAntibiotic (PA 259; with compound 2) was 0.250, the “MICCombination (antibiotic)” value (PA 114228) was 16 µg/mL and the FICI (PA 114228) was under 0.14. For the same compound, the MICAntibiotic (PA 114228) was 128 µg/mL, the “resistant isolates reaching CLSI clinical breakpoint” value [1] was “four out of ten” and the “MICCombination (antibiotic)” value (PA 101243) was 128 µg/mL. The FICI (PA 101243) was under 0.50, the MICAntibiotic (PA 101243) was 256 µg/mL and the FICAntibiotic (PA 101243) was 0.500. The “MICCombination (antibiotic)” value (PA 264) was 512 µg/mL, the FICI (PA 264) was under 0.31 and the MICAntibiotic (PA 264) was 2048 µg/mL. It also gave an FICAntibiotic (PA 264) of 0.250.
For C[C@@H](O)[C@H]1C(=O)N2C(C(=O)O)=C(S[C@@H]3CN[C@H](CNS(N)(=O)=O)C3)[C@H](C)[C@H]12 [Doripenem], the “MICCombination (antibiotic)” value (PA 262) was 4 µg/mL, the FICI (PA 262) was under 0.31 and the MICAntibiotic (PA 262) was 16 µg/mL. The FICAntibiotic (PA 262) was 0.250, the “MICCombination (antibiotic)” value (PA 101885) was 1 µg/mL and the FICI (PA 101885) was under 0.27. The MICAntibiotic (PA 101885) was 4 µg/mL, the FICAntibiotic (PA 101885) was 0.250 and the “MIC of antibiotic + Compound 2 in PAO1” value (WT P. aeruginosa PAO1; + compound 2 ≤8.7 μM, PAO1) was 0.5 µg/mL. For the same compound, the “fold change of MIC + Compound 2 in PAO1” value (WT P. aeruginosa PAO1; + compound 2 ≤8.7 μM, PAO1) was 2, the MIC (WT P. aeruginosa PAO1) was 1 µg/mL and the “FICI in the presence of ≤10 μM of 1” value (WT P. aeruginosa PAO1) was 0.51. For the same compound, the “MIC of Antibiotics in the presence of ≤10 μM of 1” value (WT P. aeruginosa PAO1) was 0.5 µg/mL, the “FICI in the presence of ≤10 μM of 2” value (WT P. aeruginosa PAO1) was 0.50 and the “MIC of Antibiotics in the presence of ≤10 μM of 2” value (WT P. aeruginosa PAO1) was 0.5 µg/mL. For the same compound, the “FICI in the presence of ≤10 μM of 3” value (WT P. aeruginosa PAO1) was 0.50, the “MIC of Antibiotics in the presence of ≤10 μM of 3” value (WT P. aeruginosa PAO1) was 0.5 µg/mL and the “MIC of antibiotic alone in PAO1” value (WT P. aeruginosa PAO1) was 1 µg/mL. The “MIC of antibiotic + Compound 2 in PAO750” value (PAO750; + compound 2 ≤8.7 μM, PAO750) was 0.25 µg/mL, the “fold change of MIC + Compound 2 in PAO750” value (PAO750; + compound 2 ≤8.7 μM, PAO750) was 4 and the “MIC of antibiotic alone in PAO750” value (PAO750) was 1 µg/mL. For the same compound, the “MIC of antibiotic + Compound 2 in PAO200” value (PAO200; + compound 2 ≤8.7 μM, PAO200) was 0.25 µg/mL, the “fold change of MIC + Compound 2 in PAO200” value (PAO200; + compound 2 ≤8.7 μM, PAO200) was 4 and the “MIC of antibiotic alone in PAO200” value (PAO200) was 1 µg/mL. The “MICCombination (antibiotic)” value (PA 100036) was 8 µg/mL, the FICI (PA 100036) was under 0.56 and the MICAntibiotic (PA 100036) was 16 µg/mL. For the same compound, the FICAntibiotic (PA 100036) was 0.500, the “MICCombination (antibiotic)” value (PA 260) was 8 µg/mL and the FICI (PA 260) was under 0.53. For the same compound, the MICAntibiotic (PA 260) was 16 µg/mL, the FICAntibiotic (PA 260) was 0.500 and the “MICCombination (antibiotic)” value (PA 91433) was 1 µg/mL. For the same compound, the FICI (PA 91433) was under 0.09, the MICAntibiotic (PA 91433) was 16 µg/mL and the FICAntibiotic (PA 91433) was 0.063. For the same compound, the MICAntibiotic (PA 259) was over 1024 µg/mL, the “MICCombination (antibiotic)” value (PA 114228) was 1 µg/mL and the FICI (PA 114228) was under 0.14. The MICAntibiotic (PA 114228) was 8 µg/mL, the FICAntibiotic (PA 114228; with compound 2) was 0.125 and the “resistant isolates reaching CLSI clinical breakpoint” value [1] was “three out of nine”. The “MICCombination (antibiotic)” value (PA 101243) was 8 µg/mL, the FICI (PA 101243) was under 0.50 and the MICAntibiotic (PA 101243) was 16 µg/mL. The FICAntibiotic (PA 101243) was 0.500, the “MICCombination (antibiotic)” value (PA 264) was 8 µg/mL and the FICI (PA 264) was under 0.51. It also gave an MICAntibiotic (PA 264) of 16 µg/mL and an FICAntibiotic (PA 264) of 0.500.
